The target in assay [1] is T1, human GPR119 (Homo sapiens, UniProt Q8TDV5).
T1 sequence (Q8TDV5 1-335): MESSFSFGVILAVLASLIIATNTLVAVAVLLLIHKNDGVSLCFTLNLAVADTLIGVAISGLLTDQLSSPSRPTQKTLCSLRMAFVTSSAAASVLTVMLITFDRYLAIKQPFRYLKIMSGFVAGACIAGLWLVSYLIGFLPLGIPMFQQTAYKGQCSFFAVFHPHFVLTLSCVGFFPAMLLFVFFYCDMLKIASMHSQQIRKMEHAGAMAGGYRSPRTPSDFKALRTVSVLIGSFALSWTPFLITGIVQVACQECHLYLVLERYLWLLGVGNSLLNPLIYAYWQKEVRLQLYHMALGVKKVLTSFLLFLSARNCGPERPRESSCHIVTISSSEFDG
Briefly: HTRF cAMP cell-based GPR119 agonist assay (hGPR119 HEK-CRE beta-lactamase cells). Details: host or cells: hGPR119-HEK293-CRE-beta-lactamase cells. The note with it: percent of maximal activity relative to standard GPR119 agonist (WO2005121121) at 10 micromolar. Here is the method: GPR119 agonist activity was also determined with a cell-based assay utilizing an HTRF (Homogeneous Time-Resolved Fluorescence) cAMP detection kit (cAMP dynamic 2 Assay Kit; Cis Bio cat #62AM4PEC) that measures cAMP levels in the cell. The method is a competitive immunoassay between native cAMP produced by the cells and the cAMP labeled with the dye d2. The tracer binding is visualized by a Mab anti-cAMP labeled with Cryptate. The specific signal (i.e. energy transfer) is inversely proportional to the concentration of cAMP in either standard or sample.
Specifically, hGPR119HEK-CRE beta-lactamase cells (Invitrogen 2.5×10^7/mL; the same cell line used in the beta-lactamase assay described above) are removed from cryopreservation and diluted in growth medium (Dulbecco's modified Eagle medium high glucose (DMEM; Gibco Cat #11995-065), 1% charcoal dextran treated fetal bovine serum (CD serum; HyClone Cat # SH30068.03), 1×MEM Nonessential amino acids (Gibco Cat #15630-080) and 25 mM HEPES pH 7.0 (Gibco Cat #15630-080)). The cell concentration was adjusted to 1.5×10^5 cells/mL and 30 mLs of this suspension was added to a T-175 flask and incubated at 37 degrees Celsius in a humidified environment in 5% carbon dioxide. […]
Varying concentrations of each compound to be tested were diluted in assay buffer containing 3-isobutyl-1-methylxanthin (IBMX; Sigma cat #15879) and added to the assay plate wells in a volume of 2 microL (final IBMX concentration was 400 microM and final DMSO concentration was 0.58%). […] The plates were then incubated at room temperature and after 60 minutes, changes in the HTRF signal were read with an Envision 2104 multilabel plate reader using excitation of 330 nm and emissions of 615 and 665 nm. Raw data were converted to nM cAMP by interpolation from a cAMP standard curve (as described in the manufacturer's assay protocol) and EC50 determinations were made from an agonist-response curves analyzed with a curve fitting program using a 4-paramter logistic dose response equation.

Assay [2] has as its target T1, human GPR119. In words: β-lactamase reporter functional assay for GPR119 agonists (hGPR119 HEK293-CRE beta-lactamase cells). It is filed as cell-based. Also on record: host or cells: hGPR119-HEK293-CRE-beta-lactamase cells; Emax: dose or concentration left out as unconfirmed. The note with it: percent of maximal activity relative to standard GPR119 agonist (WO2005121121) at 10 micromolar; read-out: Human B-lactamase Intrinsic Activity*. The protocol: The assay for GPR119 agonists utilizes a cell-based (hGPR119HEK293-CRE beta-lactamase) reporter construct where agonist activation of human GPR119 is coupled to beta-lactamase production via a cyclic AMP response element (CRE). GPR119 activity is then measured utilizing a FRET-enabled beta-lactamase substrate, CCF4-AM (Live Blazer FRET-B/G Loading kit, Invitrogen cat #K1027). […] Fluorescence was measured on an EnVision fluorimetric plate reader, excitation 405 nm, emission 460 nm/535 nm. EC50 determinations were made from agonist-response curves analyzed with a curve fitting program using a 4-parameter logistic dose-response equation.

Molecules are shown by their SMILES.

For the compound `CC(C)OC(=O)N1CCC(Oc2cc(N3CCc4cc(S(C)(=O)=O)ccc43)ncn2)CC1` [Example 3, Isopropyl 4-({6-[5-(methylsulfonyl)-2,3-dihydro-1H-indol-1-yl]pyrimidin-4-yl}oxy)piperidine-1-carboxylate], the “Human cAMP Intrinsic Activity*” value at human GPR119 [1] was found to be 107%.

Take `CC(C)OC(=O)N1C[C@H]2COC[C@@H](C1)[C@@H]2Oc1cc(N2CCc3cc(S(C)(=O)=O)ccc32)ncn1` [Example 2, Isopropyl 9-syn-({6-[5-(methylsulfonyl)-2,3-dihydro-1H-indol-1-yl]pyrimidin-4-yl}oxy)-3-oxa-7-azabicyclo[3.3.1]nonane-7-carboxylate]: the Emax at human GPR119 [2] stood at 109%.

(Values after patent US20120052130A1, “GPR 119 MODULATORS” (Pfizer Inc., priority 2009, published 2012).)
